In patent US20080260695A1, “Composition for prevention and/or treatment of cancer” (MICROBIO COMPANY LTD., priority 2007, published 2008):

Test system: colorectal cancer cell (HT-29)
Test: MTT assay, relative survival rate of colorectal cancer cell line
Format: cell-based
Details: HT-29, 24 hours, control 100%
Procedure: The six components (fermented soy extract (Microbio Biotechnology®), oligomeric proanthocyanidin, epigallocatiechin gallate, spirulina, curcumin, and Antrodia camphorata) of Example 1 were classified to seven groups; the content of each group is listed in Table 2. Each group was respectively diluted 300×, 600×, 1200×, and 2400× with McCoy's 5a medium, and then colorectal cancer cell (HT-29, 80000 cell/well) line was treated with the diluted group A to group G. After 24 hours, the relative survival rates of the colorectal cancer cell line were detected by MTT assay. In a control group, the relative survival rate was 100%.

[1] = 300 × dilution in McCoy's 5a medium
[2] = 600 × dilution in McCoy's 5a medium
[3] = 1200 × dilution in McCoy's 5a medium
[4] = 2400 × dilution in McCoy's 5a medium

COc1cc(/C=C/C(=O)CC(=O)/C=C/c2ccc(O)c(OC)c2)ccc1O [Group C, curcumin]
Relatively survival rate (%) [1]: 18% | Relatively survival rate (%) [2]: 31% | Relatively survival rate (%) [3]: 45% | Relatively survival rate (%) [4]: 71%

epigallocatiechin gallate [Group B]
Relatively survival rate (%) [1]: 23% | Relatively survival rate (%) [2]: 50% | Relatively survival rate (%) [3]: 66% | Relatively survival rate (%) [4]: 81%
